From ChEMBL document CHEMBL4138148, “Discovery of novel pyrrolo-pyridine/pyrimidine derivatives bearing pyridazinone moiety as c-Met kinase inhibitors” (Eur J Med Chem, 2017)
Blank lines part the entries; values can stand above or below the molecule they belong to. The source made the active and inactive calls. No cut-off for these calls is given here.

Key:
HepG2 [1] = assay: Induction of apoptosis in human HepG2 cells assessed as formation of cell shrinkage at 1.3 uM by acridine orange dye based inverted fluorescence microscopy; assay type: functional
A549 [2] = settings: Homo sapiens
Description: (§1) Cytotoxicity against human A549 cells assessed as reduction in cell viability after 72 hrs by MTT assay

HepG2 [3] = assay: Induction of apoptosis in human HepG2 cells assessed as viable cells at 1.3 uM by Annexin V-FITC/propidium iodide staining based flow cytometry (reference value: 87.54%); assay type: functional; settings: read-out: Activity
[4] = target: Mast/stem cell growth factor receptor Kit (Homo sapiens, UniProt P10721); assay: Inhibition of cKIT (unknown origin) using FAM-labeled peptide as substrate preincubated for 10 mins followed by substrate addition by mobility shift assay
Chain of Mast/stem cell growth factor receptor Kit (P10721 whole entry): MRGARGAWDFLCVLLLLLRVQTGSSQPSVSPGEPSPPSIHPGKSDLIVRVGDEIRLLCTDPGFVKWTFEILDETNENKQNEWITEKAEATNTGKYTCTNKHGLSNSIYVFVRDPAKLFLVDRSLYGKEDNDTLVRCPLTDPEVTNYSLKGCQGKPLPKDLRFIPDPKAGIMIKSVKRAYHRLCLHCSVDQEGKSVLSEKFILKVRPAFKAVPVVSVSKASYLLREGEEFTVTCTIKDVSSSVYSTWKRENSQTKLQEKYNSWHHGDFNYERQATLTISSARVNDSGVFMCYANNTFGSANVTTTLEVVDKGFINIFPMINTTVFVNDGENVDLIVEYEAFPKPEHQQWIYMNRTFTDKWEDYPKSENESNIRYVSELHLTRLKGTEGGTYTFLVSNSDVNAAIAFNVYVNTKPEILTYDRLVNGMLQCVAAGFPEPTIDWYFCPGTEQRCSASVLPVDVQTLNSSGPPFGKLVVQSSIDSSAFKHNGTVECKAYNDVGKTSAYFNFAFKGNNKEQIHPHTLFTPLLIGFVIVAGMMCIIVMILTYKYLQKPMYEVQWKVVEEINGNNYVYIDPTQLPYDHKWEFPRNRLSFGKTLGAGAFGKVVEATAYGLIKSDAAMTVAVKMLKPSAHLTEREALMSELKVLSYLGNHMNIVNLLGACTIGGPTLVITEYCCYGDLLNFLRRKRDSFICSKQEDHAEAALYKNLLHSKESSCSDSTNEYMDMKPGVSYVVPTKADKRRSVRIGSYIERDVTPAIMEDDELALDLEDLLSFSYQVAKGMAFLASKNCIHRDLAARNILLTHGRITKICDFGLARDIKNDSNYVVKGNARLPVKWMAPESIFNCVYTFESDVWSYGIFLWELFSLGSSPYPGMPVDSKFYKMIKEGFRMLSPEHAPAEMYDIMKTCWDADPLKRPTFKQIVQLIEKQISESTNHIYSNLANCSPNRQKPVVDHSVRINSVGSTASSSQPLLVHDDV

HepG2 [5] = assay: Induction of apoptosis in human HepG2 cells assessed as late apoptotic cells at 1.3 uM by Annexin V-FITC/propidium iodide staining based flow cytometry (reference value: 6.07%); assay type: functional
HepG2 [6] = settings: Homo sapiens
Description: (§2) Cytotoxicity against human HepG2 cells assessed as reduction in cell viability after 72 hrs by MTT assay

PC-3 [7] = assay: cells; settings: Homo sapiens, PC-3, 72 h
Description: (§3) Cytotoxicity against human PC3 cells assessed as reduction in cell viability after 72 hrs by MTT assay

MCF7 [8] = settings: Homo sapiens
Description: (§4) Cytotoxicity against human MCF7 cells assessed as reduction in cell viability after 72 hrs by MTT assay

[9] = target: T1, Receptor-type tyrosine-protein kinase FLT3 (Homo sapiens, UniProt P36888); assay: Inhibition of FLT3 (unknown origin) using FAM-labeled peptide as substrate preincubated for 10 mins followed by substrate addition by mobility shift assay
T1 sequence (P36888 whole entry): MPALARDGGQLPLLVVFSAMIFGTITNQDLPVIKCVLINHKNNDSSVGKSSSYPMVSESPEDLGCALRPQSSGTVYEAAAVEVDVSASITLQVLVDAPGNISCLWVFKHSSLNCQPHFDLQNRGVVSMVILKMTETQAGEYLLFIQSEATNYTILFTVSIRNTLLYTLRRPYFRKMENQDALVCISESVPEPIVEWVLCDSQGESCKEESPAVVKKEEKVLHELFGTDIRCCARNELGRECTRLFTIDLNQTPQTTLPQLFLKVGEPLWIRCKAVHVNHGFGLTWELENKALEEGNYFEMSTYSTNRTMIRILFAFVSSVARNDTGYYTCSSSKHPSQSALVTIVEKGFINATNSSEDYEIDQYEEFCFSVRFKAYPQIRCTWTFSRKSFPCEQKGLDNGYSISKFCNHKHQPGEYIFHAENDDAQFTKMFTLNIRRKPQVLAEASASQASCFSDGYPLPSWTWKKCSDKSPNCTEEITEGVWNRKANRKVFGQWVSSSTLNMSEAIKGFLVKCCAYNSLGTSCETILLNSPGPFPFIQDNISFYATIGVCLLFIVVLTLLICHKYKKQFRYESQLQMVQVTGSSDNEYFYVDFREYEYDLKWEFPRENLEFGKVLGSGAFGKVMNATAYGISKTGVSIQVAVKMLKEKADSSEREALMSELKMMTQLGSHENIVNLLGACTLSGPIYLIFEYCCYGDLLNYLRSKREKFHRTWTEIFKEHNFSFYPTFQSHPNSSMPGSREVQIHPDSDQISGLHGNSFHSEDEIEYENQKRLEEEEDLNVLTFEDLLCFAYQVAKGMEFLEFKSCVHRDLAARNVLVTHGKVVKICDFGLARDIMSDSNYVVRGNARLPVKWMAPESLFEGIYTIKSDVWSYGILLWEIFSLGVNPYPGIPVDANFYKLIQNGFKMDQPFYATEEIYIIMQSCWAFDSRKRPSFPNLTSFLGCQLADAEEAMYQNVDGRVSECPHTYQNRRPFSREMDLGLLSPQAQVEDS

HepG2 [10] = assay: Induction of apoptosis in human HepG2 cells assessed as necrotic cells at 1.3 uM by Annexin V-FITC/propidium iodide staining based flow cytometry (reference value: 0.28%); assay type: functional
HepG2 [11] = assay: Induction of apoptosis in human HepG2 cells assessed as formation of chromatin condensation at 1.3 uM by acridine orange dye based inverted fluorescence microscopy; assay type: functional, cell-based
PC-3 [12] = settings: Homo sapiens
Description: as §3

HepG2 [13] = assay: Induction of apoptosis in human HepG2 cells assessed as formation of DNA fragments at 1.3 uM by acridine orange dye based inverted fluorescence microscopy; assay type: functional, cell-based
HepG2 [14] = assay: cells; settings: Homo sapiens, HepG2, 72 h
Description: as §2

[15] = target: Vascular endothelial growth factor receptor 2 (Homo sapiens, UniProt P35968); assay: Inhibition of VEGFR2 (unknown origin) using FAM-labeled peptide as substrate preincubated for 10 mins followed by substrate addition by mobility shift assay
Chain of Vascular endothelial growth factor receptor 2 (P35968 whole entry): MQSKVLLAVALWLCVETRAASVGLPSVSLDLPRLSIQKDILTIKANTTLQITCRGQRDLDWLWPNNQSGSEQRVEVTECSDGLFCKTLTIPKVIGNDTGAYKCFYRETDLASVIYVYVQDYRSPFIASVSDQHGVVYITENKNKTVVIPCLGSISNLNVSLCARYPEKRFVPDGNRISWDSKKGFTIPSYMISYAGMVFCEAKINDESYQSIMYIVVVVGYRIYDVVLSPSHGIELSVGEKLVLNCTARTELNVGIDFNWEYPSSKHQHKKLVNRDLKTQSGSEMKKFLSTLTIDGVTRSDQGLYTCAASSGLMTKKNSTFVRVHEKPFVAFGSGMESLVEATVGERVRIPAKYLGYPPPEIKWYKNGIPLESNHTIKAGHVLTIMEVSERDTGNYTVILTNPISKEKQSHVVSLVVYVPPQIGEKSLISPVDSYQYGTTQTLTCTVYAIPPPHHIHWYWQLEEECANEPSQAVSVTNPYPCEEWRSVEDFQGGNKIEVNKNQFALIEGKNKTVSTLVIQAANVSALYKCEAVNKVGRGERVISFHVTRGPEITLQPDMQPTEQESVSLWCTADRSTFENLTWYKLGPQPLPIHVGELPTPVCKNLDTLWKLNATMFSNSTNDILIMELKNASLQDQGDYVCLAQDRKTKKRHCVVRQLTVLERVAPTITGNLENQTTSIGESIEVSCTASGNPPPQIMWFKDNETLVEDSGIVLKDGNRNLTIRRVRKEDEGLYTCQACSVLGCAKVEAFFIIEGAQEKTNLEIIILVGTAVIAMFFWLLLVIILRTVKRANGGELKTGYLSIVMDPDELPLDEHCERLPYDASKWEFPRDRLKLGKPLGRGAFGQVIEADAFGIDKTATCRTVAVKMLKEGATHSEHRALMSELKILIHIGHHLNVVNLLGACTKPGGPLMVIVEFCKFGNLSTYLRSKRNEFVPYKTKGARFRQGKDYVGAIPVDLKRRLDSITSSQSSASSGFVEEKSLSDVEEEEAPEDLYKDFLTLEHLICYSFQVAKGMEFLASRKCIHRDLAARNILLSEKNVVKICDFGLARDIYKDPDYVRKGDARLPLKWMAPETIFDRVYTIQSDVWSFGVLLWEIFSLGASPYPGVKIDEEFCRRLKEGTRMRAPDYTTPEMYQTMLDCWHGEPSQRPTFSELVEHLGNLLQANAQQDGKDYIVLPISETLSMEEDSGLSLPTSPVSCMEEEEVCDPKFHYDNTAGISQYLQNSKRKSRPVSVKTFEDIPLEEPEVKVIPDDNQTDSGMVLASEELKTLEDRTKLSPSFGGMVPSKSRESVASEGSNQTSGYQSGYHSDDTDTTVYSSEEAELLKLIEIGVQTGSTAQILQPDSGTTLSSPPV

[16] = target: Hepatocyte growth factor receptor (Homo sapiens, UniProt P08581); assay: Inhibition of c-MET (unknown origin) using FAM-labeled peptide as substrate preincubated for 10 mins followed by substrate addition by mobility shift assay
Chain of Hepatocyte growth factor receptor (P08581 whole entry): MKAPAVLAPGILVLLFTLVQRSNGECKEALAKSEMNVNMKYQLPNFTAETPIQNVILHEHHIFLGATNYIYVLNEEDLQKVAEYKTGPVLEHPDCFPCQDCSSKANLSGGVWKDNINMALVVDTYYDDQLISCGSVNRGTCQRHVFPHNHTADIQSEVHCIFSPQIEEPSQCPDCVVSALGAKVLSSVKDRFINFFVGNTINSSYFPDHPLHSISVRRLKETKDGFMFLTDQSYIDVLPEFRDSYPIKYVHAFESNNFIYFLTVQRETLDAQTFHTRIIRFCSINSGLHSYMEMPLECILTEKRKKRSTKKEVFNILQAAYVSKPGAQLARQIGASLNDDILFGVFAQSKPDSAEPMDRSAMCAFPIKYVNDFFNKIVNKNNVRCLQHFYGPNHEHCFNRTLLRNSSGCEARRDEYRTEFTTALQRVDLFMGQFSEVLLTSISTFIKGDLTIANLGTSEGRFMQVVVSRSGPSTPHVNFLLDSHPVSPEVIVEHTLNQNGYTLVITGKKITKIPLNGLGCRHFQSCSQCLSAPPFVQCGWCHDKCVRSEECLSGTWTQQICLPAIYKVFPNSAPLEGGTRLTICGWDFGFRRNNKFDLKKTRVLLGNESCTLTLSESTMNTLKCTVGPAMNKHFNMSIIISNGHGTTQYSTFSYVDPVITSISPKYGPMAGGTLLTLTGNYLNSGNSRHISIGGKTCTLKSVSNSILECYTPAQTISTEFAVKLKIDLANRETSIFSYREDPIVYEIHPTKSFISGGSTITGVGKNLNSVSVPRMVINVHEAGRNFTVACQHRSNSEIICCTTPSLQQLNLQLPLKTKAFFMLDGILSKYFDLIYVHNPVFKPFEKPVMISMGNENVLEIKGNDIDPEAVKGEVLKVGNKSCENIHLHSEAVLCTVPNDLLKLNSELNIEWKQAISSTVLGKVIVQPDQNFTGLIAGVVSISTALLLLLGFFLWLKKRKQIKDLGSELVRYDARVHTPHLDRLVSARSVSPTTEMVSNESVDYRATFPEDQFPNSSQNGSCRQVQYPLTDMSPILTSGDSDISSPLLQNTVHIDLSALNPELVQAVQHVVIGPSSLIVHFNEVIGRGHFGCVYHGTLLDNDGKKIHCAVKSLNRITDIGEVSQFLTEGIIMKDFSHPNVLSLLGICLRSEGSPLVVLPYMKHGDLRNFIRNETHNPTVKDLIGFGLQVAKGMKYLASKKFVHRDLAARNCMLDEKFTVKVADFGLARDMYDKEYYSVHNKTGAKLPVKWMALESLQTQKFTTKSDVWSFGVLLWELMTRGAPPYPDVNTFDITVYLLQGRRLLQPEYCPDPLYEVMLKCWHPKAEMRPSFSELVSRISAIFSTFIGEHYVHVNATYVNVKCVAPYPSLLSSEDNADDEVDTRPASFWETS

MCF7 [17] = assay: cells; settings: Homo sapiens, MCF7, 72 h
Description: as §4

A549 [18] = assay: cells; settings: Homo sapiens, A549, 72 h
Description: as §1

[19] = target: Epidermal growth factor receptor (Homo sapiens, UniProt P00533); assay: Inhibition of EGFR (unknown origin) using FAM-labeled peptide as substrate preincubated for 10 mins followed by substrate addition by mobility shift assay
Chain of Epidermal growth factor receptor (P00533 whole entry): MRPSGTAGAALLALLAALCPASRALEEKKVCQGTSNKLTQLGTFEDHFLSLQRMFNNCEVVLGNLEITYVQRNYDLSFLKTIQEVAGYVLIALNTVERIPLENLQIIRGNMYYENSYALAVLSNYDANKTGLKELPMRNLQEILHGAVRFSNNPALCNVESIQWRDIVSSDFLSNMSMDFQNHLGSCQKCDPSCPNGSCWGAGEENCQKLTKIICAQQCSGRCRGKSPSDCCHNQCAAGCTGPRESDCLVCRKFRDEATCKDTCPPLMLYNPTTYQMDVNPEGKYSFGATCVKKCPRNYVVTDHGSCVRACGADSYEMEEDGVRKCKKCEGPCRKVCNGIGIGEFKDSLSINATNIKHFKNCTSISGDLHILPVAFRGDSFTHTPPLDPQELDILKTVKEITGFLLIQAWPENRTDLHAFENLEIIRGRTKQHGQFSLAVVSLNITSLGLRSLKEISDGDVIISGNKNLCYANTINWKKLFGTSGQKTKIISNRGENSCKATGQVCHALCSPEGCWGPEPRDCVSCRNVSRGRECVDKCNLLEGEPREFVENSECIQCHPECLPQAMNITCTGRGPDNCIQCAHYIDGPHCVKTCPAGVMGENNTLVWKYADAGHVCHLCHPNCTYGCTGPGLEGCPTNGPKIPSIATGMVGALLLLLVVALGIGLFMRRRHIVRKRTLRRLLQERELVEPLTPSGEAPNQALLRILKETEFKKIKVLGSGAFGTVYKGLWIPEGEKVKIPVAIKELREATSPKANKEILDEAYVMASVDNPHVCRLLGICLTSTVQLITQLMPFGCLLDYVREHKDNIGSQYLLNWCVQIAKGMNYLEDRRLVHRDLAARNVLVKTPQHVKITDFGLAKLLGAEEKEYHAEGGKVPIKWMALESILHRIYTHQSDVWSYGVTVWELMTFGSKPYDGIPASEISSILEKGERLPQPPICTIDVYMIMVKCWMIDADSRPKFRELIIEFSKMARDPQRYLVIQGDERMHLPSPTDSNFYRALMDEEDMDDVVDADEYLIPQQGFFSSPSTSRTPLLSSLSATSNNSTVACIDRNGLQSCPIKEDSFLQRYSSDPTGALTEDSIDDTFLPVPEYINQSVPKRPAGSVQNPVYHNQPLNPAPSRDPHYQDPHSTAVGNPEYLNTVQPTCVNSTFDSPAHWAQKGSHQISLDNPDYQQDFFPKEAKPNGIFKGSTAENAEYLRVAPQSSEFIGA

HepG2 [20] = assay: Induction of apoptosis in human HepG2 cells assessed as early apoptotic cells at 1.3 uM by Annexin V-FITC/propidium iodide staining based flow cytometry (reference value: 6.11%); assay type: functional
HepG2 [21] = assay: Induction of apoptosis in human HepG2 cells assessed as necrotic cells at 2.8 uM by Annexin V-FITC/propidium iodide staining based flow cytometry (reference value: 0.28%); assay type: functional
HepG2 [22] = assay: Induction of apoptosis in human HepG2 cells assessed as early apoptotic cells at 2.8 uM by Annexin V-FITC/propidium iodide staining based flow cytometry (reference value: 6.11%); assay type: functional
HepG2 [23] = assay: Induction of apoptosis in human HepG2 cells assessed as viable cells at 2.8 uM by Annexin V-FITC/propidium iodide staining based flow cytometry (reference value: 87.54%); assay type: functional; settings: read-out: Activity
HepG2 [24] = assay: Induction of apoptosis in human HepG2 cells assessed as late apoptotic cells at 2.8 uM by Annexin V-FITC/propidium iodide staining based flow cytometry (reference value: 6.07%); assay type: functional

IC50 [4]: 2.2 µM | IC50 (PC-3 [7]): 4.63 µM | IC50 [9]: 0.77 µM | IC50 (HepG2 [14]): 1.32 µM | IC50 [15]: 2.4 µM | IC50 [16]: 0.073 µM | IC50 (MCF7 [17]): 6.27 µM | IC50 (A549 [18]): 2.19 µM | IC50 [19]: > 10 µM
SMILES: O=C(Nc1ccc(Oc2ccnc3[nH]ccc23)cc1)c1nn(-c2ccc(Cl)c(C(F)(F)F)c2)ccc1=O
Activity (HepG2 [1]): Active | Activity (A549 [2]): Dose-dependent effect | viability at 1.3 µM (HepG2 [3]): 62.8% | Activity (HepG2 [5]): 11.89% | Activity (HepG2 [6]): Dose-dependent effect | Activity (MCF7 [8]): Dose-dependent effect | Activity (HepG2 [10]): 2.31% | Activity (HepG2 [11]): Active | Activity (PC-3 [12]): Dose-dependent effect | Activity (HepG2 [13]): Active | Activity (HepG2 [20]): 23.01%

SMILES: COc1cc2c(Oc3ccc(NC(=O)C4(C(=O)Nc5ccc(F)cc5)CC4)cc3F)ccnc2cc1OCCCN1CCOCC1 [FORETINIB]
Activity (HepG2 [21]): 1.25% | Activity (HepG2 [22]): 16.09% | viability at 2.8 µM (HepG2 [23]): 72.4% | Activity (HepG2 [24]): 10.3%
